Measurements taken from paper PMC4556431 (Angewandte Chemie (International ed. in English), 2015).

Molecular target: Cif (CFTR inhibitory factor) (Pseudomonas aeruginosa, UniProt A0A0H2ZD27)
Assay: epoxide hydrolase inhibition assay
Assay type: biochemical

Sequence of Cif (CFTR inhibitory factor) (A0A0H2ZD27 25-319 limits assumed): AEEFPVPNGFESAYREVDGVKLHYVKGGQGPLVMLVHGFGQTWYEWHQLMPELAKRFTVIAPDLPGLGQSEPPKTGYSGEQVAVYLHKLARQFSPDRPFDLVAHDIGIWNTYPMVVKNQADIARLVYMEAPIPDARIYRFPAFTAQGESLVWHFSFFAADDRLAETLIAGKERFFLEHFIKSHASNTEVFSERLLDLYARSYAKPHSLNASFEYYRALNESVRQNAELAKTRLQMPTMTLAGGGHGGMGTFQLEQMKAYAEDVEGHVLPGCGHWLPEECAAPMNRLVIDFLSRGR

Molecule `N[C@@H](Cc1cc(I)c(Oc2cc(I)c(O)c(I)c2)c(I)c1)C(=O)O` [compound 9, 9] has an IC50 greater than 100 µM.
